Test results published in ChEMBL document CHEMBL5214915 (Eur J Med Chem, 2021).
≈ marks a conversion by molar mass, not a printed value.

Legend:
Assay type in all cases: functional
[1] = test system: Mycobacterium tuberculosis variant bovis; experiment: Antibacterial activity against Mycobacterium bovis BCG incubated for 1 week in 7H9/ADC/Tw medium in presence of 0.5 mM chorismate
[2] = test system: Mycobacterium tuberculosis variant bovis; experiment: Antibacterial activity against Mycobacterium bovis BCG incubated for 1 week in 7H9/ADC/Tw medium in presence of 0.1 mM chorismate
[3] = test system: Mycobacterium tuberculosis variant bovis; experiment: Antibacterial activity against Mycobacterium bovis BCG incubated for 1 week in 7H9/ADC/Tw medium in presence of 0.1 mM Trp
[4] = test system: Mycobacterium tuberculosis variant bovis; experiment: Antibacterial activity against Mycobacterium bovis BCG incubated for 1 week in 7H9/ADC/Tw medium
[5] = test system: Mycobacterium tuberculosis variant bovis; experiment: Antibacterial activity against Mycobacterium bovis BCG incubated for 1 week in 7H9/ADC/Tw medium in presence of 0.1 mM indole
[6] = test system: Mycobacterium tuberculosis variant bovis; experiment: Antibacterial activity against Mycobacterium bovis BCG incubated for 1 week in 7H9/ADC/Tw medium in presence of 0.1 mM anthranilate
[7] = Mycobacterium tuberculosis variant bovis, BCG, 168 h, read-out: MIC

Row | Structure (SMILES) | MIC [1, 7] [µM] | MIC [2, 7] [µM] | MIC [3, 7] [µM] | MIC [4, 7] [µM] | MIC [5, 7] [µM] | MIC [6, 7] [µM] | MIC [1] [µM] | MIC [2] [µM] | MIC [3] [µM] | MIC [4] [µM] | MIC [5] [µM] | MIC [6] [µM]
1 | Nc1cccc(F)c1C(=O)O | 6.4 | 6.4 | > 50 | 6.4 (≈ 0.993 µg/mL) | > 50 | > 50 | – | – | – | – | – | –
2 | Nc1cccc(F)c1C(=O)NNc1ccccc1 | 8.15 | 8.15 | > 50 | 2 (≈ 0.491 µg/mL) | > 50 | > 50 | – | – | – | – | – | –
3 | Cl.Nc1cccc(F)c1C(=O)NNc1ccccc1 | – | – | – | – | – | – | 14.2 | 7.1 | >50 | 3.5 | >50 | >50
4 | Nc1cccc(F)c1C(=O)NNc1c(Cl)cc(Cl)cc1Cl | 45.9 | 45.9 | > 50 | 22.9 (≈ 7.98 µg/mL) | > 50 | > 50 | – | – | – | – | – | –
